The text below walks through data of patent US6602690B2, “Process for production of dihomo-γ-linolenic acid and lipid containing same” (Suntory, Ltd., priority 1991, dated 2003).

The subject of experiment [1] is mutant Mortierella alpina SAM 1860. Description: Culturing of mutant Mortierella alpina SAM 1860 in medium with added substrate (Example 3), fatty acid methyl esters analysed by gas chromatography. Format: cell-based. The following applies: 0.5% additive in medium with 2% glucose, 1% yeast extract, 0.2% Tween 20; 28° C., 7 days. The procedure: These cells were extracted with a solvent of one phase chloroform/methanol/water according to Bligh & Dyer extraction method to obtain total lipids in an amount of 505 mg from the strain IFO 8568, and an amount of 530 mg from the mutant SAM 1860. These lipids were subjected to methyl-esterification using anhydrous methanol/hydrochloric acid (95:5) at 50° C. for 3 hours, and the resulting fatty acid methyl esters were extracted to obtain 417 mg of a total fatty acid methyl ester preparation from the strain IFO 8568, and 454 mg of a total fatty acid preparation from the mutant SAM 1860. The fatty acid methyl ester preparations were analyzed by gas chromatography.
20 ml of a medium (pH 6.0) containing 2% glucose; 1% yeast extract; 0.2% Tween 20; and 0.5% hydrocarbon, sodium salt of fatty acid, fatty acid ester, or fat or oil, was put into a 100 ml Erlenmeyer flask, and autoclaved at 120° C. for 20 minutes.
A mutant Mortierella alpina SAM 1860 was added to each flask, and cultured on a reciprocating shaker (110 rpm) at 28° C. for 7 days. For the resulting cell preparations, fatty acid methyl esters were analyzed by gas chromatography as described in Example 1.

Experiment [2] relates to Mortierella alpina IFO 8568. Description: Culturing of Mortierella alpina IFO 8568 with sesamin-containing soybean oil (Example 5, Comparative Example). Format: cell-based. The conditions noted are these: strain IFO 8568; soybean oil with 15% by weight sesamin, 0.5 ml at start and after 24 hours per 100 ml; 28° C., 7 days. The procedure:
(§1) 100 ml each of a medium (pH 6.0) containing 4% glucose and 1% yeast extract was put into 4 Erlenmeyer flasks having a volume of 500 ml, and 0.5 ml each of soybean oil in which sesamin (2,6-bis-(3,4-methylenedioxyphenyl)-cis-3,7-dioxabicyclo[3,3,0]octane) had been dissolved to a sesamin concentration of 15% by weight was added to 2 flasks, and 0.5 ml each of soybean oil was added 2 other flasks, and the flasks were sterilized at 120° C. for 20 minutes.
(§2) Mortierella alpina IFO 8568 (Comparative Example) was added to two different media, and the mutant SAM 1860 (Example) was add to other different media.
(§3) The strains were cultured on a reciprocating shaker (110 rpm) at 28° C. for 7 days. After 24 hours from the start of culturing, 0.5 ml each of the sesamin-containing soybean oil was added to the media to which the sesamin-containing soybean oil had been added, and 0.5 ml each of soybean oil was added to the media to which soybean oil had been added. After culturing, a fatty acid methyl ester preparation was analyzed by gas chromatography as described in Example 1.

The test system of another experiment is mutant SAM 1860. Briefly: Culturing of mutant SAM 1860 with sesamin-containing soybean oil (Example 5). Format: cell-based, Mortierella alpina. The procedure:
as §1, §2, §3

The mark [3] stands for this setting: Example 5 cultures (Table 4), strain not specified.

In experiment [1], `CCCCCCCCCCCCCCCC` [Hexadecane] had an ARA of 0.55 g/L, a DGLA of 1.89 g/L and a Dry cells of 18.1 g/L.
As to `CCCCC/C=C\C/C=C\CCCCCCCC(=O)OC` [Methyl linoleate], in experiment [1], the ARA turned out to be 0.60 g/L, the DGLA is 2.15 g/L and the Dry cells was found to be 18.7 g/L.
In experiment [1], `CCCCCCCC/C=C\CCCCCCCC(=O)OC` [Methyl oleate] yielded an ARA of 0.56 g/L, a DGLA of 1.99 g/L and a Dry cells of 18.1 g/L.
In experiment [1], `CCCCCCCCCCCCCCCCCC` [Octadecane] came in with an ARA of 0.50 g/L, a DGLA of 1.80 g/L and a Dry cells of 18.3 g/L.
As to `CCCCC/C=C\C/C=C\CCCCCCCC(=O)[O-].[Na+]` [Sodium linoleate], in experiment [1], the ARA was found to be 0.49 g/L, the DGLA is on record as 1.40 g/L and the Dry cells is on record as 14.8 g/L.
In the same order, the values of `CCCCCCCC/C=C\CCCCCCCC(=O)[O-].[Na+]` [Sodium oleate] are 0.48 g/L, 1.40 g/L and 15.5 g/L.
As to `c1cc2c(cc1[C@H]1OC[C@H]3[C@@H]1CO[C@@H]3c1ccc3c(c1)OCO3)OCO2` [sesamin, 2,6-bis-(3,4-methylenedioxyphenyl)-cis-3,7-dioxabicyclo[3,3,0]octane], the “Ratio of DGLA:ARA” value in experiment [2] is given as no more than 1.17; with mutant SAM 1860 (mutant SAM 1860, soybean oil with 15% by weight sesamin, 0.5 ml at start and after 24 hours per 100 ml, 28° C., 7 days), 12.3. In the experiment on mutant SAM 1860 (setting [3]), the “effect of addition on the amount of dry cells” value is recorded as “did not effect”. The “effect of addition on the amount of total fatty acids produced” value in the experiment with mutant SAM 1860 (setting [3]) is “did not effect”.
